Data from ChEMBL document CHEMBL4184276, “Curcumin inspired 2-chloro/phenoxy quinoline analogues: Synthesis and biological evaluation as potential anticancer agents” (Bioorg Med Chem Lett, 2018).

Tests used:
[1] = system: DU-145; test: Cytotoxicity against human DU145 cells assessed as reduction in cell viability after 48 hrs by MTT assay; format: functional, cell-based; settings: DU-145, 48 h
[2] = system: HeLa; test: Cytotoxicity against human HeLa cells assessed as reduction in cell viability after 48 hrs by MTT assay; format: functional, cell-based
[3] = system: PC-3; test: Cytotoxicity against human PC3 cells assessed as reduction in cell viability after 48 hrs by MTT assay; format: functional, cell-based; settings: PC-3, 48 h
[4] = system: 4T1; test: Cytotoxicity against mouse 4T1 cells assessed as reduction in cell viability after 48 hrs by MTT assay; format: functional, cell-based; settings: 4T1, 48 h
[5] = system: HGC-27; test: Cytotoxicity against human HGC27 cells assessed as reduction in cell viability after 48 hrs by MTT assay; format: functional, cell-based; settings: HGC-27, 48 h
[6] = system: NCI-H460; test: Cytotoxicity against human NCI-H460 cells assessed as reduction in cell viability after 48 hrs by MTT assay; format: functional, cell-based; settings: NCI-H460, 48 h
[7] = system: PC-3; test: Potency index, ratio of curcumin IC50 to compound IC50 for human PC3 cells; format: functional
[8] = system: NCI-H460; test: Potency index, ratio of curcumin IC50 to compound IC50 for human NCI-H460 cells; format: functional
[9] = system: DU-145; test: Potency index, ratio of curcumin IC50 to compound IC50 for human DU145 cells; format: functional
[10] = Aqueous solubility in milli-Q water at 2 mg incubated for 5 mins followed by sonication for 1 mins measured after 24 hrs by UV-Visible spectroscopic method; format: physicochemical

solubility [10] | SMILES | IC50 [1] | IC50 [2] | IC50 [3] | IC50 [4] | IC50 [5] | IC50 [6] | Ratio IC50 [7] | Ratio IC50 [8] | Ratio IC50 [9]
– | COc1ccc(/C=C/C(=O)/C=C/c2cc3ccccc3nc2Cl)cc1 | > 10 µM | > 10 µM | > 10 µM | > 10 µM | > 10 µM | > 10 µM | – | – | –
– | COc1ccc(/C=C/C(=O)/C=C/c2cc3ccccc3nc2Cl)c(OC)c1 | > 10 µM | > 10 µM | > 10 µM | > 10 µM | > 10 µM | > 10 µM | – | – | –
Soluble | COc1cc(OC)c(OC)cc1/C=C/C(=O)/C=C/c1cc2ccccc2nc1Oc1ccccc1 | 9.22 µM | 12.2 µM | 7.29 µM | 7.63 µM | 10.5 µM | 8.03 µM | 2.6 | 2.1 | 3.6
– | COc1cc(OC)c(/C=C/C(=O)/C=C/c2cc3ccccc3nc2Oc2ccccc2)c(OC)c1 | > 10 µM | > 10 µM | > 10 µM | > 10 µM | > 10 µM | > 10 µM | – | – | –
– | COc1ccc(/C=C/C(=O)/C=C/c2cc3ccccc3nc2Oc2ccccc2)c(OC)c1 | > 10 µM | > 10 µM | > 10 µM | > 10 µM | > 10 µM | > 10 µM | – | – | –
– | COc1cc(OC)c(/C=C/C(=O)/C=C/c2cc3ccccc3nc2Oc2ccccc2C(C)C)c(OC)c1 | > 10 µM | > 10 µM | > 10 µM | > 10 µM | > 10 µM | > 10 µM | – | – | –
– | COc1cc(OC)c(/C=C/C(=O)/C=C/c2cc3ccccc3nc2Cl)c(OC)c1 | > 10 µM | > 10 µM | > 10 µM | > 10 µM | > 10 µM | > 10 µM | – | – | –
– | COc1ccc(OC)c(/C=C/C(=O)/C=C/c2cc3ccccc3nc2Oc2cccc(Cl)c2)c1 | > 10 µM | > 10 µM | > 10 µM | > 10 µM | > 10 µM | > 10 µM | – | – | –
– | COc1ccc(/C=C/C(=O)/C=C/c2cc3ccccc3nc2Oc2ccc(Br)cc2)cc1 | > 10 µM | > 10 µM | > 10 µM | > 10 µM | > 10 µM | > 10 µM | – | – | –
– | COc1ccc(/C=C/C(=O)/C=C/c2cc3ccccc3nc2Oc2ccc(Br)cc2)c(OC)c1 | > 10 µM | > 10 µM | > 10 µM | > 10 µM | > 10 µM | > 10 µM | – | – | –
